Test results as given in patent publication EP0082266A1, “Substituted 1,5-diaminopentanes, their preparation and pharmaceutical compositions containing them” (BASF Aktiengesellschaft, priority 1981, dated 1983).
Counter-ions that a name gives are not always drawn.

Experiments:
[1] = tested on: Ratte; assay: Acute toxicity / tolerability in the rat after oral dosing (toxic symptoms: changes of baseline ECG, cyanosis, convulsions); format: in vivo; details: per os; for Toxizität Dosis: dose after which the first toxic symptoms are observed
Excerpt: (§1) Zur weiteren Charakterisierung der Substanzen wird aus der in den Experimenten verwendeten dezimalgeometrischen Dosenfolge (Faktor [formula] ) die antiarrhythmische Wirkung der maximal tolerierten Dosis bestimmt.
(§2) Ferner wird die Dosis ermittelt, bei welcher toxische Symptome (Veränderungen des Ausgangs-EKG, Cyanose, Krämpfe) auftreten.

[2] = as above; format: in vivo; details: in vivo, po; for MTD: per os, highest tolerated dose, at which the maximal effect was read, read-out: Maximale Wirkung Dosis (maximal tolerierte Dosis); for selectivity ratio: read-out: Q = Toxische Dosis / ED 50 %
Excerpt: as §1, §2

[3] = tested on: Aconitinarrhythmie der Ratte; assay: Antiarrhythmic activity, aconitine-induced arrhythmia in the anaesthetised rat (oral dosing, aconitine i.v. infusion 60 min later); format: in vivo, Ratten (Stamm: Sprague Dawley); details: for ED50: Rattus norvegicus, po, 1 h, read-out: Wirksame Dosis ED 50 %; for Maximale Wirkung Δ % (Verlängerung der Aconitinfusionsdauer) / R.W. = Relative Wirksamkeit, bezogen auf Chinidin = 1,00: rat, per os; for Maximale Wirkung Δ % (Verlängerung der Aconitinfusionsdauer): effect of the maximal tolerated dose; for R.W. = Relative Wirksamkeit, bezogen auf Chinidin = 1,00: relative potency from ED 50 %
Description: Zur Bestimmung der antiarrhythmischen Wirksamkeit werden die Substanzen Ratten (Stamm: Sprague Dawley, Gewicht 200 bis 250 g) oral appliziert. 45 min später werden die Tiere mit Thiobutabarbital-Natrium (100,0 mg/kg i.p.) narkotisiert. Als arrhythmogene Substanz dient Aconitin, das 60 min nach Substanzapplikation i.v. infundiert wird (Dosierungsgeschwindigkeit: 0,005 mg/kg x min). Bei nicht behandelten Tieren (N = 52) treten nach 2,74 + 0,07 min im EKG Arrhythmien auf, deren Eintritt durch Antiarrhythmika dosisabhängig verzögert werden kann.
Aus den linearen Beziehungen zwischen log Dosis (mg/kg) der Prüfsubstanzen und der relativen Verlängerung der Aconitin--Infusionsdauer (Δ%) wird die Dosis bestimmt, welche die Infusionsdauer um 50 % verlängert (ED 50 %).
as §1

Structure (SMILES): CC(C)C(CCCN(C)CCc1ccccc1)(CN(C)C)c1ccccc1 (stereo not drawn) [Beispiel 37, 1-Dimethylamino-2-isopropyl-2-phenyl-5-(phenethyl)--methylamino-pentan-dihydrochlorid]
- Toxizität Dosis [1]: 100 mg/kg
- MTD [2]: 46.4 mg/kg
- selectivity ratio [2]: 13
- ED50 [3]: 7.99 mg/kg
- Maximale Wirkung Δ % (Verlängerung der Aconitinfusionsdauer) [3]: 423%
- R.W. = Relative Wirksamkeit, bezogen auf Chinidin = 1,00 [3]: 5,44

Structure (SMILES): CCNCC(CCCN(C)CCc1ccc(OC)c(OC)c1)(c1ccc(OC)c(OC)c1)C(C)C (stereo not drawn) [Beispiel 15, 1-Ethylamino-2-isopropyl-2-(3,4-dimethoxyphenyl)-5--[(3,4-dimethoxyphenethyl)methylamino]-pentan-dihydrochlorid]
- ED50 [3]: 17.1 mg/kg
- R.W. = Relative Wirksamkeit, bezogen auf Chinidin = 1,00 [3]: 2,54

Structure (SMILES): COc1ccc(CCN(C)CCCC(CN(C)C)(c2ccc(OC)c(OC)c2)C(C)C)cc1OC (stereo not drawn) [Beispiel 38, 1-Dimethylamino-2-isopropyl-2-(3,4-dimethoxyphenyl)--5-[(3,4-dimethoxyphenethyl)methylamino]-pentan-dihydrochlorid]
- ED50 [3]: 27.8 mg/kg
- R.W. = Relative Wirksamkeit, bezogen auf Chinidin = 1,00 [3]: 1,57

Structure (SMILES): CCNCC(CCCN(C)CCc1ccccc1)(c1ccccc1)C(C)C (stereo not drawn) [Beispiel 9, 1-Ethylamino-2-isopropyl-2-phenyl-5-(phenethyl)-methyl-amino-pentan-dihydrochlorid]
- ED50 [3]: 11.8 mg/kg
- R.W. = Relative Wirksamkeit, bezogen auf Chinidin = 1,00 [3]: 3,69

Structure (SMILES): CCCCNCC(CCCN(C)CCc1ccc(OC)c(OC)c1)(c1cc(OC)c(OC)c(OC)c1)C(C)C (stereo not drawn) [Beispiel 23]
- ED50 [3]: 33.8 mg/kg

Structure (SMILES): COc1ccc(CCN(C)CCCC(CNC(C)C)(c2ccc(OC)c(OC)c2)C(C)C)cc1OC (stereo not drawn) [Beispiel 17, 1-Isopropylamino-2-isopropyl-2-(3,4-dimethoxyphenyl)-5--[(3,4-dimethoxyphenethyl)methylamino]-pentan-dihydrochlorid]
- ED50 [3]: 26.1 mg/kg
- R.W. = Relative Wirksamkeit, bezogen auf Chinidin = 1,00 [3]: 1,67

Structure (SMILES): CC(C)CNCC(CCCN(C)CCc1ccccc1)(c1ccccc1)C(C)C (stereo not drawn) [Beispiel 14, 1-Isobutylamino-2-isopropyl-2-phenyl-5-(phenethyl)-methylamino-pentan-dihydrochlorid]
- Toxizität Dosis [1]: 215 mg/kg
- MTD [2]: 100 mg/kg
- selectivity ratio [2]: 15
- ED50 [3]: 14.3 mg/kg
- Maximale Wirkung Δ % (Verlängerung der Aconitinfusionsdauer) [3]: 287%
- R.W. = Relative Wirksamkeit, bezogen auf Chinidin = 1,00 [3]: 3,04

Structure (SMILES): CCCCNCC(CCCN(C)CCc1ccccc1)(c1ccccc1)C(C)C (stereo not drawn) [Beispiel 12, 1-(n-Butyl)amino-2-isopropyl-2-phenyl-5-(phenethyl)-methylamino-pentan-dihydrochlorid]
- ED50 [3]: 22.5 mg/kg
- R.W. = Relative Wirksamkeit, bezogen auf Chinidin = 1,00 [3]: 1,93

Structure (SMILES): C=CC1CN2CCC1CC2C(O)c1ccnc2ccc(OC)cc12 (stereo not drawn) [Chinidin, reference compound]
- Toxizität Dosis [1]: 464 mg/kg
- Q = Toxische Dosis / ED 50 % ([1]; therapeutic width): ll
- ED50 [3]: 43.5 mg/kg
- Maximale Wirkung Δ % (Verlängerung der Aconitinfusionsdauer) [3]: 129%
- R.W. = Relative Wirksamkeit, bezogen auf Chinidin = 1,00 [3]: ≡ 1,00

Structure (SMILES): CCCNCC(CCCN(C)CCc1ccc(OC)c(OC)c1)(c1cc(OC)c(OC)c(OC)c1)C(C)C (stereo not drawn) [Beispiel 21, 1-(n-Propyl)amino-2-isopropyl-2-(3,4,5-trimethoxyphenyl)-5-[(3,4-dimethoxyphenethyl)methylamino]--pentan-dihydrochlorid]
- ED50 [3]: 23.4 mg/kg
- R.W. = Relative Wirksamkeit, bezogen auf Chinidin = 1,00 [3]: 1,86

Structure (SMILES): CCCCNCC(CCCN(C)CCc1ccc(OC)c(OC)c1)(c1ccc(Cl)cc1)C(C)C (stereo not drawn) [Beispiel 27, 1-(n-Butyl)amino-2-isopropyl-2-(4-chlorphenyl)--5-[(3,4-dimethoxyphenethyl)methylamino]-pentan--dihydrochlorid]
- ED50 [3]: 21.5 mg/kg
- R.W. = Relative Wirksamkeit, bezogen auf Chinidin = 1,00 [3]: 2,02

Structure (SMILES): CNCC(CCCN(C)CCc1ccc(OC)c(OC)c1)(c1cc(OC)c(OC)c(OC)c1)C(C)C (stereo not drawn) [Beispiel 33, 1-Methylamino-2-isopropyl-2-(3,4,5-trimethoxyphenyl)--5-[(3,4-dimethoxyphenethyl)methylamino]-pentan-dihydrochlorid]
- ED50 [3]: 21.5 mg/kg
- R.W. = Relative Wirksamkeit, bezogen auf Chinidin = 1,00 [3]: 2,02

Structure (SMILES): CNCC(CCCN(C)CCc1ccccc1)c1ccccc1 (stereo not drawn) [Beispiel 28, 1-Methylamino-2-phenyl-5-(phenethyl)methylamino--pentan]
- ED50 [3]: 11.6 mg/kg
- R.W. = Relative Wirksamkeit, bezogen auf Chinidin = 1,00 [3]: 3,75

Structure (SMILES): CCCCCCCCCCCCC(CCCN(C)CCc1ccccc1)(CN(C)C)c1ccccc1 (stereo not drawn) [Beispiel 40, 1-Dimethylamino-2-(n-dodecyl)-2-phenyl-5-(phenethyl)methylamino-pentan]
- ED50 [3]: 6.88 mg/kg
- R.W. = Relative Wirksamkeit, bezogen auf Chinidin = 1,00 [3]: 6,32

Structure (SMILES): CN(C)CC(C)(CCCN(C)CCc1ccccc1)c1ccccc1 (stereo not drawn) [Beispiel 35, 1-Dimethylamino-2-methyl-2-phenyl-5-(phenethyl)-methyl-amino-pentan]
- ED50 [3]: 8.02 mg/kg
- R.W. = Relative Wirksamkeit, bezogen auf Chinidin = 1,00 [3]: 5,42

Structure (SMILES): COc1ccc(CCN(C)CCCC(CNC(C)C)(c2cc(OC)c(OC)c(OC)c2)C(C)C)cc1OC (stereo not drawn) [Beispiel 22, 1-Isopropylamino-2-isopropyl-2-(3,4,5-trimethoxyphenyl)-5-[(3,4-dimethoxyphenethyl)methylamino]--pentan-dihydrochlorid]
- ED50 [3]: 24.8 mg/kg
- R.W. = Relative Wirksamkeit, bezogen auf Chinidin = 1,00 [3]: 1,75

Structure (SMILES): CCNCC(CCCN(C)CCc1ccc(OC)c(OC)c1)(c1cc(OC)c(OC)c(OC)c1)C(C)C (stereo not drawn) [Beispiel 20, 1-Ethylamino-2-isopropyl-2-(3,4,5-trimethoxyphenyl)-5--[(3,4-dimethoxyphenethyl)methylamino]-pentan-dihydrochlorid]
- Toxizität Dosis [1]: 464 mg/kg
- MTD [2]: 215 mg/kg
- selectivity ratio [2]: 38
- ED50 [3]: 12.3 mg/kg
- Maximale Wirkung Δ % (Verlängerung der Aconitinfusionsdauer) [3]: 224%
- R.W. = Relative Wirksamkeit, bezogen auf Chinidin = 1,00 [3]: 3,54

Structure (SMILES): CCCCC(CCCN(C)CCc1ccccc1)(CN(C)C)c1ccccc1 (stereo not drawn) [Beispiel 36, 1-Dimethylamino-2-(n-butyl)-2-phenyl-5-(phenethyl)--methylamino-pentan]
- ED50 [3]: 8.66 mg/kg
- R.W. = Relative Wirksamkeit, bezogen auf Chinidin = 1,00 [3]: 5,02

Structure (SMILES): CCCNCC(CCCN(C)CCc1ccccc1)(c1ccccc1)C(C)C (stereo not drawn) [Beispiel 10, 1-(n-Propyl)amino-2-isopropyl-2-phenyl-5-(phenethyl)-methylamino-pentan-dihydrochlorid]
- Toxizität Dosis [1]: 215 mg/kg
- MTD [2]: 100 mg/kg
- selectivity ratio [2]: 18
- ED50 [3]: 11.8 mg/kg
- Maximale Wirkung Δ % (Verlängerung der Aconitinfusionsdauer) [3]: 243%
- R.W. = Relative Wirksamkeit, bezogen auf Chinidin = 1,00 [3]: 3,69

Structure (SMILES): CN(C)CC(CCCN(C)CCc1ccccc1)c1ccccc1 (stereo not drawn) [Beispiel 34, 1-Dimethylamino-2-phenyl-5-(phenethyl)methylamino--pentan]
- ED50 [3]: 14.7 mg/kg
- R.W. = Relative Wirksamkeit, bezogen auf Chinidin = 1,00 [3]: 2,96

Structure (SMILES): CNCC(CCCN(C)CCc1ccc(OC)c(OC)c1)(c1ccc(OC)c(OC)c1)C(C)C (stereo not drawn) [Beispiel 32, 1-Methylamino-2-isopropyl-2-(3,4-dimethoxyphenyl)-5--[(3,4-dimethoxyphenethyl)methylamino]-pentan-dihydrochlorid]
- ED50 [3]: 33.8 mg/kg

Structure (SMILES): CCC(C)NCC(CCCN(C)CCc1ccccc1)(c1ccccc1)C(C)C (stereo not drawn) [Beispiel 13, 1-(sec-Butyl)amino-2-isopropyl-2-phenyl-5-(phenethyl)-methylamino-pentan-dihydrochlorid]
- Toxizität Dosis [1]: 215 mg/kg
- MTD [2]: 100 mg/kg
- selectivity ratio [2]: 17
- ED50 [3]: 12.9 mg/kg
- Maximale Wirkung Δ % (Verlängerung der Aconitinfusionsdauer) [3]: 237%
- R.W. = Relative Wirksamkeit, bezogen auf Chinidin = 1,00 [3]: 3,37

Structure (SMILES): CC(C)NCC(CCCN(C)CCc1ccccc1)(c1ccccc1)C(C)C (stereo not drawn) [Beispiel 11, 1-Isopropylamino-2-isopropyl-2-phenyl-5-(phenethyl)-methylamino-pentan-dihydrochlorid]
- ED50 [3]: 6.42 mg/kg

Structure (SMILES): CCC(C)NCC(CCCN(C)CCc1ccc(OC)c(OC)c1)(c1cc(OC)c(OC)c(OC)c1)C(C)C (stereo not drawn) [Beispiel 24]
- ED50 [3]: 17 mg/kg
- R.W. = Relative Wirksamkeit, bezogen auf Chinidin = 1,00 [3]: 2,56

Structure (SMILES): CC(C)C(CN)(CCCN(C)CCc1ccccc1)c1ccccc1 (stereo not drawn) [Beispiel 1, 1-Amino-2-isopropyl-2-phenyl-5-(phenethyl)methylamino-pentan]
- ED50 [3]: 29.4 mg/kg
- R.W. = Relative Wirksamkeit, bezogen auf Chinidin = 1,00 [3]: 1,48

Structure (SMILES): CC(C)C(CN)(CCCNCCc1ccccc1)c1ccccc1.Cl.Cl (stereo not drawn) [Beispiel 6, 1-Amino-2-isopropyl-2-phenyl-5-(phenethyl)amino--pentan-dihydrochlorid]
- ED50 [3]: 21.6 mg/kg
- R.W. = Relative Wirksamkeit, bezogen auf Chinidin = 1,00 [3]: 2,01

Structure (SMILES): CNCC(CCCN(C)CCc1ccccc1)(c1ccccc1)C(C)C (stereo not drawn) [Beispiel 30, 1-Methylamino-2-isopropyl-2-phenyl-5-(phenethyl)methyl-amino-pentan-dihydrochlorid]
- Toxizität Dosis [1]: 464 mg/kg
- MTD [2]: 215 mg/kg
- selectivity ratio [2]: 42
- ED50 [3]: 11 mg/kg
- Maximale Wirkung Δ % (Verlängerung der Aconitinfusionsdauer) [3]: 499%
- R.W. = Relative Wirksamkeit, bezogen auf Chinidin = 1,00 [3]: 3,96
